Consider 14 compounds from patent EP1090023B1 (GLAXO GROUP LIMITED, priority 1998, dated 1999).

Format in all cases: cell-based
Experiment [1] addresses adenosine 2a (Homo sapiens, UniProt P29274). Briefly: Agonist activity against adenosine receptor subtypes, CHO cells with cAMP response element/SPAP reporter (basal cAMP). The conditions noted are these: ratio to EC50 of NECA; transfected CHO cells; effect on basal cAMP via SPAP. On the procedure: (§1) Compounds of the invention were tested for in vitro and in vivo biological activity in accordance with the following screens: • (1) Agonist activity against adenosine 2a, adenosine 1 and adenosine 3 receptor subtypes.
(§2) Agonist selectivity of compounds against other human adenosine receptors was determined using Chinese hamster ovary (CHO) cells transfected with the gene for the relevant human adenosine receptor following a method based on that of Castanon and Spevak, 1994 . The CHO cells were also transfected with cyclic AMP response elements promoting the gene for secreted placental alkaline phosphatase (SPAP) (Wood, 1995). The effect of test compounds was determined by their effects on basal levels of cAMP (A2a) or on forskolin-enhanced cAMP (A1 and A3) as reflected by changes in levels of SPAP. EC50 values for compounds were then determined as a ratio to that of the non-selective agonist N-ethyl carboxamide adenosine (NECA).

In experiment [2] the target is T1, adenosine 1 (Homo sapiens, UniProt P30542).
T1 sequence (P30542 1-326): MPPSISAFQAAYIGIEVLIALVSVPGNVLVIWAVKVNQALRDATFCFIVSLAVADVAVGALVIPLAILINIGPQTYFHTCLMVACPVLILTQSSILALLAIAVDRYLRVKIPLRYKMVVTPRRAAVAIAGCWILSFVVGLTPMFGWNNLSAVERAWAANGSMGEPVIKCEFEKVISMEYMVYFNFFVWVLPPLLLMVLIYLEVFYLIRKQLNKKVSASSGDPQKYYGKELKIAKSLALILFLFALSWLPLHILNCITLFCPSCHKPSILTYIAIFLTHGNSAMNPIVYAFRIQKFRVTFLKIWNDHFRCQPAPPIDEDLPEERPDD
Briefly: Agonist activity against adenosine receptor subtypes, CHO cells with cAMP response element/SPAP reporter (forskolin-enhanced cAMP). The conditions noted are these: ratio to EC50 of NECA; transfected CHO cells; effect on forskolin-enhanced cAMP via SPAP. As to the method: as §1, §2

The target of experiment [3] is T2, adenosine 3 (Homo sapiens, UniProt P0DMS8).
T2 sequence (P0DMS8 1-318): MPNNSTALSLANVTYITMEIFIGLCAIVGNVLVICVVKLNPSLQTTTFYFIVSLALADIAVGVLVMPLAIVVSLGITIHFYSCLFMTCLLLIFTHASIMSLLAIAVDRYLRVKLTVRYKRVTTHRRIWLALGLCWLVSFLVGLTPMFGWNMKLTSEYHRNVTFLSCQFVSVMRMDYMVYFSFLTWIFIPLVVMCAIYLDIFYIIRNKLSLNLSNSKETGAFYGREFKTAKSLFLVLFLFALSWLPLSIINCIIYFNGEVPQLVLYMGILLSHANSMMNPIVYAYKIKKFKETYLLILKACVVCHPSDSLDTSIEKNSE
The description is as above. To be noted: ratio to EC50 of NECA; transfected CHO cells; effect on forskolin-enhanced cAMP via SPAP. As to the method:
as §1, §2

adenosine 2a, sequence (P29274 whole entry): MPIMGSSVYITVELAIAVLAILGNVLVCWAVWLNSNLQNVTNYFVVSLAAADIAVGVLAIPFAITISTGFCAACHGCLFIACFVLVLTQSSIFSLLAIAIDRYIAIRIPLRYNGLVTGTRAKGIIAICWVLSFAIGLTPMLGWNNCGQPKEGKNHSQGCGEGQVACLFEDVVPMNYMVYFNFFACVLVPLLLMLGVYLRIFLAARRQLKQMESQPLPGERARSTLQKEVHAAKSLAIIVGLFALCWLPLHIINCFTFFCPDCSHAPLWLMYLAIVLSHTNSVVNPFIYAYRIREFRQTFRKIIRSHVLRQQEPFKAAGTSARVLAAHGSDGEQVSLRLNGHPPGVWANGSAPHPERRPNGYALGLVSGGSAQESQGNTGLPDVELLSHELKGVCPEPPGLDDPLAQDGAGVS

With `CCc1nc([C@H]2O[C@@H](n3cnc4c(NCC(c5ccccc5)c5ccccc5)nc(N[C@H]5CC[C@H](N)CC5)nc43)[C@H](O)[C@@H]2O)no1.O=CO.O=CO` (relative stereo) [Example 12, (2R,3R,4S,5R)-2-[2-(trans-4-Amino-cyclohexylamino)-6-(2,2-diphenyl-ethylamino)-purin-9-yl]-5-(5-ethyl-[1,2,4]oxadiazol-3-yl)-tetrahydro-furan-3,4-diol diformate], the “A2a (EC50 values as a ratio of that of NECA)” value in experiment [1] is listed as 4.77. Moreover, the “A1 (EC50 values as a ratio of that of NECA)” value in experiment [2] was more than 8841. In addition, the “A3 (EC50 values as a ratio of that of NECA)” value in experiment [3] is reported as more than 194.

In the case of `CCC(CC)Nc1nc(N[C@H]2CC[C@H](N)CC2)nc2c1ncn2[C@@H]1O[C@H](c2nnc(C3CC3)o2)[C@@H](O)[C@H]1O.O=CO.O=CO` (relative stereo) [Example 36, (2R,3R,4S,5S)-2-[2-(trans-4-Amino-cyclohexylamino)-6-(1-ethyl-propylamino)-purin-9-yl]-5-(5-cyclopropyl-[1,3,4]oxadiazol-2-yl)-tetrahydro-furan-3,4-diol diformate], in experiment [1], the “A2a (EC50 values as a ratio of that of NECA)” value is listed as 26.3. In experiment [2], the “A1 (EC50 values as a ratio of that of NECA)” value is on record as 1105.6. Further, in experiment [3], the “A3 (EC50 values as a ratio of that of NECA)” value is more than 173.

Take `Cc1nnc([C@H]2O[C@@H](n3cnc4c(NCC(c5ccccc5)c5ccccc5)nc(NCCN5CCCC5)nc43)[C@H](O)[C@@H]2O)[nH]1.O=CO` [Example 1, (2R,3R,4S,5R)-2-[6-(2,2-Diphenyl-ethylamino)-2-(2-pyrrolidin-1-yl-ethylamino)-purin-9-yl]-5-(5-methyl-4H-[1,2,4]triazol-3-yl)-tetrahydro-furan-3,4-diol formate]: the “A2a (EC50 values as a ratio of that of NECA)” value in experiment [1] is recorded as 14.6. For the same compound, in experiment [2], the “A1 (EC50 values as a ratio of that of NECA)” value is more than 8325. The “A3 (EC50 values as a ratio of that of NECA)” value in experiment [3] is given as more than 1088.

As for `Cc1nnc([C@H]2O[C@@H](n3cnc4c(NCC(c5ccccc5)c5ccccc5)nc(N[C@H](CO)Cc5ccccc5)nc43)[C@H](O)[C@@H]2O)[nH]1.O=CO` [Example 2, (2R,3R,4S,5R)-2-[6-(2,2-Diphenyl-ethylamino)-2-(1S-hydroxymethyl-2-phenyl-ethylamino)-purin-9-yl]-5-(5-methyl-4H-[1,2,4]triazol-3-yl)-tetrahydro-furan-3,4-diol formate], in experiment [1], the “A2a (EC50 values as a ratio of that of NECA)” value is on record as 2.46. The “A1 (EC50 values as a ratio of that of NECA)” value in experiment [2] was “>=7728”. In addition, the “A3 (EC50 values as a ratio of that of NECA)” value in experiment [3] was more than 1087.

As for `Cc1nnc([C@H]2O[C@@H](n3cnc4c(NCC(c5ccccc5)c5ccccc5)nc(NCCc5cn(C)cn5)nc43)[C@H](O)[C@@H]2O)[nH]1.O=CO` [Example 3, (2R,3R,4S,5R)-2-{6-(2,2-Diphenyl-ethylamino)-2-[2-(1-methyl-1H-imidazol-4-yl)-ethylamino]-purin-9-yl}-5-(5-methyl-4H-[1,2,4]triazol-3-yl)-tetrahydro-furan-3,4-diol formate], the “A2a (EC50 values as a ratio of that of NECA)” value in experiment [1] stood at 3.54. The “A1 (EC50 values as a ratio of that of NECA)” value in experiment [2] is on record as more than 9058. Also, the “A3 (EC50 values as a ratio of that of NECA)” value in experiment [3] was more than 698.

For `Cc1nnc([C@H]2O[C@@H](n3cnc4c(NCC(c5ccccc5)c5ccccc5)nc(N[C@H]5CC[C@H](N)CC5)nc43)[C@H](O)[C@@H]2O)[nH]1.O=CO` [Example 4, (2R,3R,4S,5R)-2-[2-(trans-4-Amino-cyclohexylamino)-6-(2,2-diphenyl-ethylamino)-purin-9-yl]-5-(5-methyl-4H-[1,2,4]triazol-3-yl)-tetrahydro-furan-3,4-diol formate], the “A2a (EC50 values as a ratio of that of NECA)” value in experiment [1] worked out at 5.1. Also, the “A1 (EC50 values as a ratio of that of NECA)” value in experiment [2] was 4686. Further, in experiment [3], the “A3 (EC50 values as a ratio of that of NECA)” value is given as more than 1052.

Regarding `CCc1nnc([C@H]2O[C@@H](n3cnc4c(NCC(c5ccccc5)c5ccccc5)nc(N[C@H](CO)Cc5ccccc5)nc43)[C@H](O)[C@@H]2O)[nH]1.O=CO` [Example 5, (2R,3R,4S,5R)-2-[6-(2,2-Diphenyl-ethylamino)-2-(1S-hydroxymethyl-2-phenyl-ethylamino)-purin-9-yl]-5-(5-ethyl-4H-[1,2,4]triazol-3-yl)-tetrahydro-furan-3,4-diol formate], the “A2a (EC50 values as a ratio of that of NECA)” value in experiment [1] is 1. In experiment [2], the “A1 (EC50 values as a ratio of that of NECA)” value was “>=5194”. Also, in experiment [3], the “A3 (EC50 values as a ratio of that of NECA)” value is more than 319.

Regarding `CCc1nnc([C@H]2O[C@@H](n3cnc4c(NCC(c5ccccc5)c5ccccc5)nc(N[C@H]5CC[C@H](N)CC5)nc43)[C@H](O)[C@@H]2O)[nH]1.O=CO` [Example 6, (2R,3R,4S,5R)-2-[2-(trans-4-Amino-cyclohexylamino)-6-(2,2-diphenyl-ethylamino)-purin-9-yl]-5-(5-ethyl-4H-[1,2,4]triazol-3-yl)-tetrahydro-furan-3,4-diol formate], the “A2a (EC50 values as a ratio of that of NECA)” value in experiment [1] is recorded as 12.3. In addition, in experiment [2], the “A1 (EC50 values as a ratio of that of NECA)” value turned out to be 6739. Further, the “A3 (EC50 values as a ratio of that of NECA)” value in experiment [3] is listed as more than 183.

With `CCc1nnc([C@H]2O[C@@H](n3cnc4c(NCC(c5ccccc5)c5ccccc5)nc(N[C@H](CO)C(C)C)nc43)[C@H](O)[C@@H]2O)[nH]1.O=CO` [Example 7, (2R,3R,4S,5R)-2-[6-(2,2-Diphenyl-ethylamino)-2-(1S-hydroxymethyl-2-methyl-propylamino)-purin-9-yl]-5-(5-ethyl-4H-[1,2,4]triazol-3-yl)-tetrahydro-furan-3,4-diol formate], the “A2a (EC50 values as a ratio of that of NECA)” value in experiment [1] stood at 2.94. Besides, in experiment [2], the “A1 (EC50 values as a ratio of that of NECA)” value is given as 5327. In experiment [3], the “A3 (EC50 values as a ratio of that of NECA)” value is recorded as more than 183.

As to `CCc1nnc([C@H]2O[C@@H](n3cnc4c(NCC(c5ccccc5)c5ccccc5)nc(NCCN5CCOCC5)nc43)[C@H](O)[C@@H]2O)[nH]1.O=CO` [Example 8, (2R,3R,4S,5R)-2-[6-(2,2-Diphenyl-ethylamino)-2-(2-morpholin-4-yl-ethylamino)-purin-9-yl]-5-(5-ethyl-4H-[1,2,4]triazol-3-yl)-tetrahydro-furan-3,4-diol formate], the “A2a (EC50 values as a ratio of that of NECA)” value in experiment [1] stood at 19.4. Besides, in experiment [2], the “A1 (EC50 values as a ratio of that of NECA)” value is reported as more than 10735. Further, the “A3 (EC50 values as a ratio of that of NECA)” value in experiment [3] is recorded as more than 183.

On to `CCc1nnc([C@H]2O[C@@H](n3cnc4c(NCC(c5ccccc5)c5ccccc5)nc(N[C@@H]5CCNC5)nc43)[C@H](O)[C@@H]2O)[nH]1.O=CO` [Example 9, (2R,3R,4S,5R)-2-[6-(2,2-Diphenyl-ethylamino)-2-(pyrrolidin-3R-ylamino)-purin-9-yl]-5-(5-ethyl-4H-[1,2,4]triazol-3-yl)-tetrahydro-furan-3,4-diol formate], for which the “A2a (EC50 values as a ratio of that of NECA)” value in experiment [1] is on record as 3.25. In experiment [2], the “A1 (EC50 values as a ratio of that of NECA)” value is reported as more than 6032. Further, the “A3 (EC50 values as a ratio of that of NECA)” value in experiment [3] is more than 147.

For `CC(C)c1nnc([C@H]2O[C@@H](n3cnc4c(NCC(c5ccccc5)c5ccccc5)nc(N[C@H]5CC[C@H](N)CC5)nc43)[C@H](O)[C@@H]2O)[nH]1.O=CO` [Example 10, (2R,3R,4S,5R)-2-[2-(trans-4-Amino-cyclohexylamino)-6-(2,2-diphenyl-ethylamino)-purin-9-yl]-5-(5-isopropyl-4H-[1,2,4]triazol-3-yl)-tetrahydro-furan-3,4-diol formate], in experiment [1], the “A2a (EC50 values as a ratio of that of NECA)” value is on record as 16.85. Besides, the “A1 (EC50 values as a ratio of that of NECA)” value in experiment [2] is reported as 1453.5. Also, the “A3 (EC50 values as a ratio of that of NECA)” value in experiment [3] is recorded as more than 326.

In the case of `CC(C)c1nnc([C@H]2O[C@@H](n3cnc4c(NCC(c5ccccc5)c5ccccc5)nc(N[C@H](CO)Cc5ccccc5)nc43)[C@H](O)[C@@H]2O)[nH]1.O=CO` [Example 11, (2R,3R,4S,5R)-2-[6-(2,2-Diphenyl-ethylamino)-2-(1S-hydroxymethyl-2-phenyl-ethylamino)-purin-9-yl]-5-(5-isopropyl-4H-[1,2,4]triazol-3-yl)-tetrahydro-furan-3,4-diol formate], the “A2a (EC50 values as a ratio of that of NECA)” value in experiment [1] is on record as 17.97. In addition, the “A1 (EC50 values as a ratio of that of NECA)” value in experiment [2] was determined as 2202. Besides, in experiment [3], the “A3 (EC50 values as a ratio of that of NECA)” value was more than 257.

For `CCc1nc([C@H]2O[C@@H](n3cnc4c(NCC(c5ccccc5)c5ccccc5)nc(NCCc5cn(C)cn5)nc43)[C@H](O)[C@@H]2O)no1.O=CO` [Example 13, (2R,3R,4S,5R)-2-{6-(2,2-Diphenyl-ethylamino)-2-[2-(1-methyl-1H-imidazol-4-yl)-ethylamino]-purin-9-yl}-5-(5-ethyl-[1,2,4]oxadiazol-3-yl)-tetrahydro-furan-3,4-diol formate], the “A2a (EC50 values as a ratio of that of NECA)” value in experiment [1] stood at 1.29. Moreover, the “A1 (EC50 values as a ratio of that of NECA)” value in experiment [2] is 6620. For the same compound, the “A3 (EC50 values as a ratio of that of NECA)” value in experiment [3] is listed as more than 194.
